Source: patent publication US7880007B2, “Bicyclic substituted phenyl piperidine modulators of muscarinic receptors” (Vertex Pharmaceuticals Incorporated, priority 2004, dated 2011)

Assays:
Assay type in all cases: cell-based
[1] = target: T1, M3 muscarinic receptor (Homo sapiens, UniProt P20309); experiment: Functional mobilization of intracellular calcium (FLIPR), M3-CHO cells; conditions: for Emax: 100% efficacy is the maximum response obtained with the Carbachol control; for M3 Activity: M3-CHO cells, calcium mobilization (FLIPR)
T1 construct: expressed in transfected cells; host or cells: CHO (M3-CHO)
Method in brief: (§1)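 FLIPR fluorescence (ex 488, em 540 nm) recorded 60 sec after compound addition to dye-loaded CHO cells. Agonist mode: compound alone. Antagonist mode: 15 min compound pre-incubation, then carbachol at EC80, or co-application. Efficacy expressed as % of maximal carbachol response.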

[2] = target: T2, M1 muscarinic receptor (Homo sapiens, UniProt P11229); experiment: Functional mobilization of intracellular calcium (FLIPR), M1-CHO cells; conditions: for Emax: 100% efficacy is the maximum response obtained with the Carbachol control; for M1 Activity: M1-CHO cells, calcium mobilization (FLIPR)
T2 construct: expressed in transfected cells; host or cells: CHO (M1-CHO)
T2 sequence (P11229 1-460): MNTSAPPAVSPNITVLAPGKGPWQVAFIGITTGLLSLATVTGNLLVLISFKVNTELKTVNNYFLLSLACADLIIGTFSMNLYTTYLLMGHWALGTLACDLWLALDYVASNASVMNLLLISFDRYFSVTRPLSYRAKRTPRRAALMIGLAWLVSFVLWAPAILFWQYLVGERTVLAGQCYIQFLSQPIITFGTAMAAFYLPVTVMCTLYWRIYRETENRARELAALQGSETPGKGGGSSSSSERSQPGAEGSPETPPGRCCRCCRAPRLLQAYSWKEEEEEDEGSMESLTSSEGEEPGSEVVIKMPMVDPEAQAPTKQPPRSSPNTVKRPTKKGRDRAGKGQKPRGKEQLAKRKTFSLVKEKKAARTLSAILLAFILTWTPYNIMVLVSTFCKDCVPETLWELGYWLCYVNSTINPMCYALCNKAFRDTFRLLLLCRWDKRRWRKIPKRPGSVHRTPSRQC
Method in brief: as §1

[3] = target: T3, M4 muscarinic receptor (Homo sapiens, UniProt P08173); experiment: Functional mobilization of intracellular calcium (FLIPR), M4-CHO cells; conditions: for Emax: 100% efficacy is the maximum response obtained with the Carbachol control; for M4 Activity: M4-CHO cells, calcium mobilization (FLIPR)
T3 construct: expressed in transfected cells; host or cells: CHO (M4-CHO)
T3 sequence (P08173 1-479): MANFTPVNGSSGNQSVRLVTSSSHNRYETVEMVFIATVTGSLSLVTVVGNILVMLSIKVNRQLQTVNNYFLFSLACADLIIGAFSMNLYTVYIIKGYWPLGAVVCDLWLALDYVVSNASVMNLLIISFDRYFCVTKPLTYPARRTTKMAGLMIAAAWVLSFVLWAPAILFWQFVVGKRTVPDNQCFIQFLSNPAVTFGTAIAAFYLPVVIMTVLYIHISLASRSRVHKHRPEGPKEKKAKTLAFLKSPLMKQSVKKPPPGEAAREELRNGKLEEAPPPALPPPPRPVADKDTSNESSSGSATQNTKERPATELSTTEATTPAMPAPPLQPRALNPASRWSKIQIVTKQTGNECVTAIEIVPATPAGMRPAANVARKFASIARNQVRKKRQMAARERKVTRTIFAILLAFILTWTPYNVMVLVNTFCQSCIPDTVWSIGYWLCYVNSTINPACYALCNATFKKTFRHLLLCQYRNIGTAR
Method in brief: as §1

[4] = target: T4, M2 muscarinic receptor (Homo sapiens, UniProt P08172); experiment: Functional mobilization of intracellular calcium (FLIPR), M2-CHO cells; conditions: for Emax: 100% efficacy is the maximum response obtained with the Carbachol control; for M2 Activity: M2-CHO cells, calcium mobilization (FLIPR)
T4 construct: expressed in transfected cells; host or cells: CHO (M2-CHO)
T4 sequence (P08172 1-466): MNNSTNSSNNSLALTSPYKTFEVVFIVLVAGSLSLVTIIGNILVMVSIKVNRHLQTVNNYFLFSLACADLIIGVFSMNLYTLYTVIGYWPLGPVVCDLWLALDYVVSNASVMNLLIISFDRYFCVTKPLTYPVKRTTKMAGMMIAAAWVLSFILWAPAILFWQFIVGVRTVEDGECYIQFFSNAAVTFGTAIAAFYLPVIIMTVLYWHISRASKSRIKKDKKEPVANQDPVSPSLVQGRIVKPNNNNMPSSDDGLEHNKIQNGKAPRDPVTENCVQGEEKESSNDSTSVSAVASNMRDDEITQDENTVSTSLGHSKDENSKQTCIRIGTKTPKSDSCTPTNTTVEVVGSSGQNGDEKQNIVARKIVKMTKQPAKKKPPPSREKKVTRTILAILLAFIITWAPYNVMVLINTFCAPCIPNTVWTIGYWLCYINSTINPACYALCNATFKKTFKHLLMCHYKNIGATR
Method in brief: as §1

T1 sequence (P20309 whole entry): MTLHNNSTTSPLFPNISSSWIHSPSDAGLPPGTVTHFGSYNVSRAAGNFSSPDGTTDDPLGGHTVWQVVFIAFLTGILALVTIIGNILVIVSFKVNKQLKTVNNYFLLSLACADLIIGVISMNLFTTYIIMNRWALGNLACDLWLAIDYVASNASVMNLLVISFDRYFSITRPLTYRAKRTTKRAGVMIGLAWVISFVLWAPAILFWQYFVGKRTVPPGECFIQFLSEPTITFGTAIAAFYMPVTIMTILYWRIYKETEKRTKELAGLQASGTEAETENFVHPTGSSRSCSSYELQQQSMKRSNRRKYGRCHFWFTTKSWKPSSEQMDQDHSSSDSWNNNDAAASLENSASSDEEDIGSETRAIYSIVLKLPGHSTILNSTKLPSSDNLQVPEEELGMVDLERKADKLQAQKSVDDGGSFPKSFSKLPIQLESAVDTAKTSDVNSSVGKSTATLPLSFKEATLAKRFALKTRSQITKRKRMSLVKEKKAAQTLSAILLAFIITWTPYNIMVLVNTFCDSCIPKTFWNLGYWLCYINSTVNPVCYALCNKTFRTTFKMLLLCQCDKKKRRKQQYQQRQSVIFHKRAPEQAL

| SMILES | Emax [1] [%] | Emax [2] [%] | Emax [3] [%] | Emax [4] [%] | M3 Activity [1] | M1 Activity [2] | M4 Activity [3] | M2 Activity [4] |
| --- | --- | --- | --- | --- | --- | --- | --- | --- |
| CCOC(=O)N1C2CCC1CC(N1CCC(c3cc(Cl)ccc3OC)CC1)C2 (stereo not shown) [Compound 406] | 25 to 100 | 25 to 100 | 25 to 100 | 25 to 100 | + (activity was measured to be greater than 5.0 μM) | +++ (activity was measured to be less than 1.0 μM) | +++ (activity was measured to be less than 1.0 μM) | +++ (activity was measured to be less than 1.0 μM) |
| COc1ccc(-c2ccc(C(N)=O)cc2)cc1C1CCN([C@H]2C[C@H]3CC[C@H]2C3)CC1 [Compound 407] | < 25 | < 25 | 25 to 100 | < 25 | + (activity was measured to be greater than 5.0 μM) | + (activity was measured to be greater than 5.0 μM) | +++ (activity was measured to be less than 1.0 μM) | + (activity was measured to be greater than 5.0 μM) |
| COc1ccccc1C1CCN(C2C3CC4CC(C3)CC2C4)CC1 (stereo not shown) [Compound 408] | < 25 | 25 to 100 | 25 to 100 | < 25 | + (activity was measured to be greater than 5.0 μM) | + (activity was measured to be greater than 5.0 μM) | +++ (activity was measured to be less than 1.0 μM) | + (activity was measured to be greater than 5.0 μM) |
| COc1ccc(Cl)cc1C1(F)CCN(C2CCCCC2)CC1 [Compound 409] | < 25 | 25 to 100 | 25 to 100 | 25 to 100 | + (activity was measured to be greater than 5.0 μM) | + (activity was measured to be greater than 5.0 μM) | ++ (activity was measured to be from 1.0 μM to 5.0 μM) | + (activity was measured to be greater than 5.0 μM) |
| COc1ccccc1C1CCN(C2CCC(OC(=O)c3ccccc3)CC2)CC1 (stereo not shown) [Compound 410] | < 25 | < 25 | 25 to 100 | < 25 | + (activity was measured to be greater than 5.0 μM) | + (activity was measured to be greater than 5.0 μM) | ++ (activity was measured to be from 1.0 μM to 5.0 μM) | + (activity was measured to be greater than 5.0 μM) |
| N#Cc1ccc(C2CCN(C3CCOCC3)CC2)cc1 [Compound 415] | < 25 | < 25 | 25 to 100 | < 25 | + (activity was measured to be greater than 5.0 μM) | + (activity was measured to be greater than 5.0 μM) | + (activity was measured to be greater than 5.0 μM) | + (activity was measured to be greater than 5.0 μM) |
| COc1ccccc1-c1ccccc1C1CCN([C@H]2C[C@H]3CC[C@H]2C3)CC1 [Compound 420] | < 25 | 25 to 100 | 25 to 100 | < 25 | + (activity was measured to be greater than 5.0 μM) | + (activity was measured to be greater than 5.0 μM) | ++ (activity was measured to be from 1.0 μM to 5.0 μM) | + (activity was measured to be greater than 5.0 μM) |

Further lines, with some results ahead:

| Emax [1] [%] | Emax [2] [%] | Emax [3] [%] | Emax [4] [%] | SMILES | M3 Activity [1] | M1 Activity [2] | M4 Activity [3] | M2 Activity [4] |
| --- | --- | --- | --- | --- | --- | --- | --- | --- |
| < 25 | 25 to 100 | > 100 | 25 to 100 | CCOC(=O)N1CCC(CN2CCC(c3ccccc3C(F)(F)F)CC2)CC1 [Compound 405] | + (activity was measured to be greater than 5.0 μM) | +++ (activity was measured to be less than 1.0 μM) | +++ (activity was measured to be less than 1.0 μM) | ++ (activity was measured to be from 1.0 μM to 5.0 μM) |
| < 25 | 25 to 100 | < 25 | < 25 | CCOC(=O)N1CCC(CN2CCC(c3cc(-c4ccc(S(=O)(=O)N5CCCC5)cc4)ccc3OC)CC2)CC1 [Compound 411] | + (activity was measured to be greater than 5.0 μM) | +++ (activity was measured to be less than 1.0 μM) | +++ (activity was measured to be less than 1.0 μM) | + (activity was measured to be greater than 5.0 μM) |
| < 25 | < 25 | 25 to 100 | < 25 | COc1ccc(-c2ccsc2)cc1C1CCN([C@@H]2C[C@H]3CC[C@H]2C3)CC1 [Compound 414] | + (activity was measured to be greater than 5.0 μM) | + (activity was measured to be greater than 5.0 μM) | ++ (activity was measured to be from 1.0 μM to 5.0 μM) | + (activity was measured to be greater than 5.0 μM) |
| < 25 | < 25 | 25 to 100 | < 25 | COc1ccc(C(=O)c2ccoc2)cc1C1CCN([C@@H]2C[C@H]3CC[C@H]2C3)CC1 [Compound 416] | + (activity was measured to be greater than 5.0 μM) | + (activity was measured to be greater than 5.0 μM) | ++ (activity was measured to be from 1.0 μM to 5.0 μM) | + (activity was measured to be greater than 5.0 μM) |
| 25 to 100 | 25 to 100 | > 100 | 25 to 100 | CCON=C1CCC(N2CCC(c3cc(Cl)ccc3OC)CC2)CC1 (stereo not shown) [Compound 417, 4-(4-(5-chloro-2-methoxyphenyl)piperidin-1-yl)cyclohexanone O-ethyl oxime] | + (activity was measured to be greater than 5.0 μM) | +++ (activity was measured to be less than 1.0 μM) | +++ (activity was measured to be less than 1.0 μM) | +++ (activity was measured to be less than 1.0 μM) |
| < 25 | < 25 | 25 to 100 | < 25 | COc1ccc(Cl)cc1C1(F)CCN(CC2CCOCC2)CC1 [Compound 418] | + (activity was measured to be greater than 5.0 μM) | ++ (activity was measured to be from 1.0 μM to 5.0 μM) | ++ (activity was measured to be from 1.0 μM to 5.0 μM) | + (activity was measured to be greater than 5.0 μM) |
| < 25 | 25 to 100 | 25 to 100 | 25 to 100 | COc1ccccc1C(=O)COc1ccccc1C1CCN([C@H]2C[C@H]3CC[C@H]2C3)CC1 [Compound 422] | + (activity was measured to be greater than 5.0 μM) | ++ (activity was measured to be from 1.0 μM to 5.0 μM) | +++ (activity was measured to be less than 1.0 μM) | ++ (activity was measured to be from 1.0 μM to 5.0 μM) |
